Experimental data published in US6806230B1, “Pyrimidine derivatives and herbicides containing them” (Kumiai Chemical Industry Co., Ltd., priority 1999, dated 2004).

How the values were obtained:
Assay type in all cases: in vivo
[1] = test system: barnyard grass (Eo); test: Test Example 1: herbicidal effects by flooded paddy field treatment; parameters: herbicidal effects, Eo (barnyard grass):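 0-5 growth inhibition grade; 5 = over 90%; 4 = 70-90%; 3 = 50-70%; 2 = 30-50%; 1 = 10-30%; 0 = under 10%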; conditions: for herbicidal effects, Eo (barnyard grass): dose 100 g active ingredient per 10 ares, examined on the 21st day after treatment, standards of Table 44; for Herbicidal effect index, Eo: dose 100 gai/10a, examined on 21st day after treatment, index 0-5 per Table 44;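 for Herbicidal effect index, Eo: 0-5 growth inhibition grade; 5 = over 90%; 4 = 70-90%; 3 = 50-70%; 2 = 30-50%; 1 = 10-30%; 0 = under 10%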
Experimental: (§1) In a 100 cm^2 plastic pot, paddy field soil was filled and paddled. Then, seeds of barnyard grass (Eo) and monochoria (Mo) were sown, and water was introduced to a depth of 3 cm. Next day, a wettable powder prepared in accordance with Formulation Example 1 was diluted with water and dropwise applied to the water surface. The dose was 100 g of the active ingredient per 10 ares. Thereafter, cultivation was carried out in a green house, and on the 21st day after the treatment, the herbicidal effects were examined in accordance with the standards as identified in Table 44.

[2] = test system: monochoria (Mo); test: as above; parameters: herbicidal effects, Mo (monochoria):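 0-5 growth inhibition grade; 5 = over 90%; 4 = 70-90%; 3 = 50-70%; 2 = 30-50%; 1 = 10-30%; 0 = under 10%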; conditions: for herbicidal effects, Mo (monochoria): dose 100 g active ingredient per 10 ares, examined on the 21st day after treatment, standards of Table 44; for Herbicidal effect index, Mo: dose 100 gai/10a, examined on 21st day after treatment, index 0-5 per Table 44
Experimental: as §1

[3] = test system: barnyard grass (Ec); test: Test Example 2: herbicidal effects by upland soil treatment; parameters: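 0-5 growth inhibition grade; 5 = over 90%; 4 = 70-90%; 3 = 50-70%; 2 = 30-50%; 1 = 10-30%; 0 = under 10%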; conditions: dose 100 g active ingredient per 10 ares, examined on the 21st day after treatment
Experimental: In a 80 cm^2 plastic pot, upland soil was filled, and seeds of barnyard grass (Ec) and green foxtail (Se) were sown and covered with soil. A wettable powder prepared in accordance with Formulation Example 1 was diluted with water and uniformly applied to the soil surface by means of a small size spray at a rate of 100 l per 10 ares, so that the dose of the active ingredient would be 100 g per 10 ares. Thereafter, cultivation was carried out in a green house, and on the 21st day after the treatment, the herbicidal effects were examined in accordance with the standards as identified in Table 44.

[4] = test system: monochoria (Mo); test: Test Example 4: selectivity for a crop plant by flooded paddy field treatment; parameters: scale not given here; conditions: for Mo (herbicidal effect index): monochoria, dose 25 gai/10a, 21st day after treatment, index per Table 44; for Mo (herbicidal effects, index): dose 25 g active ingredient per 10 ares, examined on the 21st day after treatment
Experimental: as §1, with “pot, a” for “pot,”, “sown, and rice (Or) of second leaf stage was transplanted,” for “sown,”, “was 25” for “was 100”, “standards of” for “standards as identified in”

[5] = test system: rice (Or); test: as above; parameters: scale not given here; conditions: rice transplanted at second leaf stage; for Or (herbicidal effect index on crop): dose 25 gai/10a, 21st day after treatment, index per Table 44; for Or (effect on crop plant rice, index): dose 25 g active ingredient per 10 ares, examined on the 21st day after treatment
Experimental: as §1, with “pot, a” for “pot,”, “sown, and rice (Or) of second leaf stage was transplanted,” for “sown,”, “was 25” for “was 100”, “standards of” for “standards as identified in”

[6] = test system: barnyard grass (Eo); test: as above; parameters: scale not given here; conditions: for Eo (herbicidal effect index): barnyard grass, dose 25 gai/10a, 21st day after treatment, index per Table 44; for Eo (herbicidal effects, index): dose 25 g active ingredient per 10 ares, examined on the 21st day after treatment
Experimental: as §1, with “pot, a” for “pot,”, “sown, and rice (Or) of second leaf stage was transplanted,” for “sown,”, “was 25” for “was 100”, “standards of” for “standards as identified in”
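Throughout, for Herbicidal effect index, Mo: 0-5 growth inhibition grade; 5 = over 90%; 4 = 70-90%; 3 = 50-70%; 2 = 30-50%; 1 = 10-30%; 0 = under 10%.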

CN(C(=O)Cc1cccs1)C(c1cncnc1C(F)(F)F)C1(C)CC1 (racemic) [2-55]
herbicidal effects, Eo (barnyard grass) [1]: 5
herbicidal effects, Mo (monochoria) [2]: 5
Ec (herbicidal effects, index) [3]: 5
Mo (herbicidal effect index) [4]: 5
Or (herbicidal effect index on crop) [5]: 1
Eo (herbicidal effect index) [6]: 5

CC(C)C(c1cncnc1C(F)(F)F)N(C)C(=O)CSc1ccc(Cl)cc1 (racemic) [1-183]
herbicidal effects, Eo (barnyard grass) [1]: 5
herbicidal effects, Mo (monochoria) [2]: 5
Mo (herbicidal effect index) [4]: 5
Or (herbicidal effect index on crop) [5]: 0
Eo (herbicidal effect index) [6]: 5

C#CCN(C(=O)Cc1ccc(Cl)cc1F)C(c1cncnc1C(F)(F)F)C(C)C (racemic) [1-615]
herbicidal effects, Eo (barnyard grass) [1]: 5
herbicidal effects, Mo (monochoria) [2]: 5
Mo (herbicidal effect index) [4]: 5
Or (herbicidal effect index on crop) [5]: 1
Eo (herbicidal effect index) [6]: 5

CC(C)C(c1cncnc1C(F)(F)F)N(C)C(=O)C=Cc1ccc(Cl)cc1 (racemic) [Compound 1-86]
Herbicidal effect index, Eo [1]: 5
Herbicidal effect index, Mo [2]: 5
Mo (herbicidal effects, index) [4]: 5
Or (effect on crop plant rice, index) [5]: 0
Eo (herbicidal effects, index) [6]: 5

O=C(Cc1ccc(C(F)(F)F)cc1)NC(c1cncnc1C(F)(F)Cl)C1CC1 (racemic) [Compound 1-4]
Herbicidal effect index, Eo [1]: 5
Herbicidal effect index, Mo [2]: 5
Mo (herbicidal effects, index) [4]: 4
Or (effect on crop plant rice, index) [5]: 1
Eo (herbicidal effects, index) [6]: 5

COc1ccc(SC(=O)N(C)C(c2cncnc2C(F)(F)Cl)C(C)C)cc1 (racemic) [Compound 1-18]
Herbicidal effect index, Eo [1]: 5
Herbicidal effect index, Mo [2]: 5
Mo (herbicidal effects, index) [4]: 4
Or (effect on crop plant rice, index) [5]: 1
Eo (herbicidal effects, index) [6]: 5

Cc1ccc(C(C)(C)C(=O)N(C)C(c2cncnc2C(F)(F)F)C(C)C)cc1 (racemic) [1-175]
herbicidal effects, Eo (barnyard grass) [1]: 5
herbicidal effects, Mo (monochoria) [2]: 5
Mo (herbicidal effect index) [4]: 5
Or (herbicidal effect index on crop) [5]: 0
Eo (herbicidal effect index) [6]: 5

CC(c1cncnc1C(C)(C)C)N(C)C(=O)Cc1ccccc1 (racemic) [1-188]
herbicidal effects, Eo (barnyard grass) [1]: 5
herbicidal effects, Mo (monochoria) [2]: 5
Mo (herbicidal effect index) [4]: 5
Or (herbicidal effect index on crop) [5]: 0
Eo (herbicidal effect index) [6]: 5

Cc1ccc(CC(=O)N(C2CC2)C(c2cncnc2C(F)(F)F)C(C)C)cc1 (racemic) [Compound 1-82]
Herbicidal effect index, Eo [1]: 5
Herbicidal effect index, Mo [2]: 5
Mo (herbicidal effects, index) [4]: 5
Or (effect on crop plant rice, index) [5]: 0
Eo (herbicidal effects, index) [6]: 5

Cc1ccc(CC(=O)N(C)C(c2cncnc2-c2ccccc2)C(C)C)cc1 (racemic) [1-325]
herbicidal effects, Eo (barnyard grass) [1]: 5
herbicidal effects, Mo (monochoria) [2]: 5
Mo (herbicidal effect index) [4]: 5
Or (herbicidal effect index on crop) [5]: 1
Eo (herbicidal effect index) [6]: 5

COC(=O)c1ncncc1C(C(C)C)N(C)C(=O)C(C)c1ccc(Cl)cc1 (single isomer, unassigned) [1-593]
herbicidal effects, Eo (barnyard grass) [1]: 5
herbicidal effects, Mo (monochoria) [2]: 5
Mo (herbicidal effect index) [4]: 4
Or (herbicidal effect index on crop) [5]: 0
Eo (herbicidal effect index) [6]: 5

CSc1ccc(CC(=O)N(C)C(c2cncnc2C(F)(F)F)C(C)C)cc1 (racemic) [Compound 1-44]
Herbicidal effect index, Eo [1]: 5
Herbicidal effect index, Mo [2]: 5
Mo (herbicidal effects, index) [4]: 5
Or (effect on crop plant rice, index) [5]: 0
Eo (herbicidal effects, index) [6]: 5

COc1ccc(C(c2cncnc2C(F)(F)F)N(C)C(=O)Cc2ccc(C)cc2)cc1 (racemic) [1-487]
herbicidal effects, Eo (barnyard grass) [1]: 5
herbicidal effects, Mo (monochoria) [2]: 5
Mo (herbicidal effect index) [4]: 5
Or (herbicidal effect index on crop) [5]: 1
Eo (herbicidal effect index) [6]: 5

CC(c1cncnc1C(C)(C)C)N(C)C(=O)Cc1ccc(F)cc1 (racemic) [1-189]
herbicidal effects, Eo (barnyard grass) [1]: 5
herbicidal effects, Mo (monochoria) [2]: 5
Mo (herbicidal effect index) [4]: 5
Or (herbicidal effect index on crop) [5]: 0
Eo (herbicidal effect index) [6]: 5

COc1ccccc1C(c1cncnc1C(F)(F)F)N(C)C(=O)Cc1ccc(C)cc1 (racemic) [1-491]
herbicidal effects, Eo (barnyard grass) [1]: 5
herbicidal effects, Mo (monochoria) [2]: 5
Mo (herbicidal effect index) [4]: 5
Or (herbicidal effect index on crop) [5]: 0
Eo (herbicidal effect index) [6]: 5

CC(C)C(c1cncnc1C(F)(F)F)N(C)C(=O)COc1ccccc1Cl (racemic) [Compound 1-132]
herbicidal effects, Eo (barnyard grass) [1]: 5
herbicidal effects, Mo (monochoria) [2]: 5
Mo (herbicidal effect index) [4]: 5
Or (herbicidal effect index on crop) [5]: 0
Eo (herbicidal effect index) [6]: 5

CC(C)C(c1cncnc1-c1ccccc1)N(C)C(=O)Cc1ccc(Cl)cc1 (racemic) [1-324]
herbicidal effects, Eo (barnyard grass) [1]: 5
herbicidal effects, Mo (monochoria) [2]: 5
Mo (herbicidal effect index) [4]: 5
Or (herbicidal effect index on crop) [5]: 1
Eo (herbicidal effect index) [6]: 5

CC(C)C(c1cncnc1C(F)(F)F)N(C)C(=O)COc1nc2ccccc2s1 (racemic) [2-48]
herbicidal effects, Eo (barnyard grass) [1]: 5
herbicidal effects, Mo (monochoria) [2]: 5
Mo (herbicidal effect index) [4]: 5
Or (herbicidal effect index on crop) [5]: 1
Eo (herbicidal effect index) [6]: 5

Cc1ccc(CC(=O)N(C)C(c2cncnc2C(F)(F)Cl)C2CC2)cc1 (racemic) [Compound 1-93]
Herbicidal effect index, Eo [1]: 5
Herbicidal effect index, Mo [2]: 5
Mo (herbicidal effects, index) [4]: 5
Or (effect on crop plant rice, index) [5]: 0
Eo (herbicidal effects, index) [6]: 5

CN(C(=O)Cc1ccc(Cl)s1)C(c1cncnc1C(F)(F)F)C(C)(C)C (racemic) [2-42]
herbicidal effects, Eo (barnyard grass) [1]: 5
herbicidal effects, Mo (monochoria) [2]: 5
Mo (herbicidal effect index) [4]: 5
Or (herbicidal effect index on crop) [5]: 0
Eo (herbicidal effect index) [6]: 5

CC(C)C(c1cncnc1C(F)(F)F)N(C)C(=O)Cc1ccc(S(C)(=O)=O)cc1 (racemic) [Compound 1-104]
Herbicidal effect index, Eo [1]: 5
Herbicidal effect index, Mo [2]: 5
Mo (herbicidal effect index) [4]: 5
Or (herbicidal effect index on crop) [5]: 1
Eo (herbicidal effect index) [6]: 5

CC(C)C(c1cncnc1C(F)(F)F)N(C)C(=O)Cc1cccc(C(F)(F)F)c1 (racemic) [Compound 1-39]
Herbicidal effect index, Eo [1]: 5
Herbicidal effect index, Mo [2]: 5
Mo (herbicidal effects, index) [4]: 5
Or (effect on crop plant rice, index) [5]: 0
Eo (herbicidal effects, index) [6]: 5

CC(C)C(c1cncnc1C(F)(F)F)N(C)C(=O)Cc1ccc(C(C)(C)C)cc1 (racemic) [Compound 1-43]
Herbicidal effect index, Eo [1]: 5
Herbicidal effect index, Mo [2]: 5
Mo (herbicidal effects, index) [4]: 5
Or (effect on crop plant rice, index) [5]: 1
Eo (herbicidal effects, index) [6]: 5
